Measured values published in patent US20260373138A1, “COMPOUNDS WITH ANTIFUNGAL PROPERTIES” (priority 2023, published 2026).

Tested on: A. fumigatus CEA10 reference strain
Experiment: Fluconazole potentiator screen: MIC by CLSI microbroth dilution with and without fluconazole
Format: cell-based, Aspergillus fumigatus
Settings: for MIC: Aspergillus fumigatus, read-out: MIC (ug/mL) (−) Fluc; for MIC / MIC (ug/mL) (+) Fluc: 18 h; for MIC (ug/mL) (+) Fluc: with 32 μg/ml fluconazole, normoxia, GMM, 37 °C; for potency / potentiation of fluconazole (in words): structure-activity statements, fluconazole potentiator screen

O=C(c1cccc(F)c1)N1CCC(Cc2ccc(CN3CCOCC3)cc2)CC1 [MBX-8032]
MIC: 3.1 µg/mL | MIC (ug/mL) (+) Fluc: 8.80 µg/mL

CC(c1ccc(CC2CCN(S(=O)(=O)c3ccc(F)cc3)CC2)cc1)N1CCOCC1 (stereo not shown) [MBX-8357]
MIC: > 22 µg/mL | MIC (ug/mL) (+) Fluc: 5.60 µg/mL

O=C(c1ccc2sccc2c1)N1CCC(Cc2ccc(COc3ccncc3)cc2)CC1 [MBX-8096]
MIC: > 22 µg/mL | MIC (ug/mL) (+) Fluc: >22 µg/mL

O=S(=O)(c1ccc(F)cc1)N1CCC(Cc2ccc(Cc3ccncc3)cc2)CC1 [MBX-8428]
MIC: 10.6 µg/mL | MIC (ug/mL) (+) Fluc: 6.37 µg/mL

c1csc(CN2CCC3(CC2)CC(CCOc2ccncc2)CCO3)c1 (stereo not shown) [MBX-7955]
MIC: > 74 µg/mL | MIC (ug/mL) (+) Fluc: >74 µg/mL

Cc1cc(OCc2ccc(CC3CCN(C(=O)c4ccsc4)CC3)cc2)ccn1 [MBX-8141]
MIC: > 20 µg/mL | potency / potentiation of fluconazole (in words): complete loss of activity | MIC (ug/mL) (+) Fluc: >20 µg/mL

COc1cccc(C(=O)N2CCC(Cc3ccc(COc4ccncc4)cc3)CC2)c1 [MBX-7771]
MIC: 11.8 µg/mL | MIC (ug/mL) (+) Fluc: 16.70 µg/mL

COc1cc(OCc2ccc(CC3CCN(C(=O)c4ccsc4)CC3)cc2)ccn1 [MBX-8142]
MIC: > 21 µg/mL | potency / potentiation of fluconazole (in words): complete loss of activity | MIC (ug/mL) (+) Fluc: >21 µg/mL

O=S(=O)(c1ccccc1F)N1CCC(Cc2ccc(CN3CCOCC3)cc2)CC1 [MBX-8252]
MIC: 5.4 µg/mL | MIC (ug/mL) (+) Fluc: 1.07 µg/mL

O=S(=O)(c1ccc(F)cc1)N1CC2(CC(Cc3ccc(CN4CCOCC4)cc3)C2)C1 [MBX-8345]
MIC: > 22 µg/mL | MIC (ug/mL) (+) Fluc: 11.00 µg/mL

Cc1cccc(S(=O)(=O)N2CCC3(CC2)CC(CCOc2ccncc2)CCO3)c1 (stereo not shown) [MBX-7870]
MIC: > 17 µg/mL | MIC (ug/mL) (+) Fluc: 6.09 µg/mL

O=S(=O)(c1ccc(Cl)cc1)N1CCC2(CC1)CC(CCOc1ccncc1)CCO2 (stereo not shown) [MBX-7877]
MIC: 3.19 µg/mL | MIC (ug/mL) (+) Fluc: 0.80 µg/mL

O=S(=O)(c1ccc(F)cc1)N1CCC(Cc2ccc(CN3CCOCC3)cc2)C1 (stereo not shown) [MBX-8390]
MIC: 2 µg/mL | MIC (ug/mL) (+) Fluc: 0.40 µg/mL

O=C(c1cccc(F)c1O)N1CCC(Cc2ccc(COc3ccncc3)cc2)CC1 [MBX-7803]
MIC: > 16 µg/mL | MIC (ug/mL) (+) Fluc: >16 µg/mL

O=S(=O)(c1ccc(F)cc1)C1CCN(Cc2ccc(CN3CCOCC3)cc2)CC1 [MBX-8325]
MIC: > 20 µg/mL | MIC (ug/mL) (+) Fluc: >20 µg/mL

O=S(=O)(c1ccc(F)cc1)N1CCC(Cc2ccc(CC3CCOCC3)cc2)CC1 [MBX-8347]
MIC: > 21 µg/mL | MIC (ug/mL) (+) Fluc: >21 µg/mL

O=S(=O)(c1ccc(C(F)(F)F)nc1)N1CCC2(CC1)CC(CCOc1ccncc1)CCO2 (stereo not shown) [MBX-7913]
MIC: 2.41 µg/mL | potency / potentiation of fluconazole (in words): the most potent | MIC (ug/mL) (+) Fluc: 0.96 µg/mL

O=S(=O)(c1ccsc1)N1CCC2(CC1)CC(CCOc1ccncc1)CCO2 (stereo not shown) [MBX-7876]
MIC: > 12 µg/mL | MIC (ug/mL) (+) Fluc: 2.99 µg/mL

O=S(=O)(c1ccsc1)N1CCc2cc(COc3ccncc3)ccc2C1 [MBX-8307]
MIC: 4.8 µg/mL | MIC (ug/mL) (+) Fluc: 2.40 µg/mL

O=S(=O)(N1CCOCC1)N1CCC2(CC1)CC(CCOc1ccncc1)CCO2 (stereo not shown) [MBX-7950]
MIC: 26.8 µg/mL | potency / potentiation of fluconazole (in words): complete loss of activity | MIC (ug/mL) (+) Fluc: 13.40 µg/mL

O=C(c1cncs1)N1CCC(Cc2ccc(COc3ccncc3)cc2)CC1 [MBX-8098]
MIC: 5.5 µg/mL | loss in potentiating the fluconazole (analogs of MBX-7591): more than 4 fold | MIC (ug/mL) (+) Fluc: 2.50 µg/mL

c1cc(OCc2ccc(CC3CCN(Cc4ccsc4)CC3)cc2)ccn1 [MBX-7806]
MIC: > 15 µg/mL | MIC (ug/mL) (+) Fluc: >15 µg/mL

O=S(=O)(c1ccsc1)N1CCC(Cc2ccc(COc3ccncc3)cc2)CC1 [MBX-7822]
MIC: > 6 µg/mL | potency / potentiation of fluconazole (in words): the only linker reasonably tolerated, apart from the amide | MIC (ug/mL) (+) Fluc: 1.07 µg/mL

O=S(=O)(c1ccc(Cl)s1)N1CCC2(CC1)CC(CCOc1ccncc1)CCO2 (stereo not shown) [MBX-7912]
MIC: 0.36 µg/mL | potency / potentiation of fluconazole (in words): the most potent | MIC (ug/mL) (+) Fluc: 0.18 µg/mL

N=S(=O)(c1ccc(F)cc1)N1CCC(Cc2ccc(CN3CCOCC3)cc2)CC1 (stereo not shown) [MBX-8389]
MIC: > 43 µg/mL | MIC (ug/mL) (+) Fluc: >43 µg/mL

Cc1ccc(S(=O)(=O)N2CCC3(CC2)CC(CCOc2ccncc2)CCO3)cn1 (stereo not shown) [MBX-8143]
MIC: 10.8 µg/mL | MIC (ug/mL) (+) Fluc: 3.81 µg/mL

O=C(c1ccsc1)N1CCC(Cc2ccc(COc3ccncc3)cc2)C1 (stereo not shown) [MBX-8240]
MIC: 4.73 µg/mL | MIC (ug/mL) (+) Fluc: 2.37 µg/mL

O=C(c1ccc(CC2CCN(S(=O)(=O)c3cccc(F)c3)CC2)cc1)N1CCOCC1 [MBX-8188]
MIC: > 22 µg/mL | potency / potentiation of fluconazole (in words): not tolerated | MIC (ug/mL) (+) Fluc: >22 µg/mL

O=S(=O)(c1ccsc1)N1CC2(CC(CCOc3ccncc3)C2)C1 [MBX-8306]
MIC: 9.1 µg/mL | MIC (ug/mL) (+) Fluc: 4.50 µg/mL

O=S(=O)(c1ccc(C(F)(F)F)nc1)N1CCC(Cc2ccc(CN3CCOCC3)cc2)CC1 [MBX-8186]
MIC: 4.8 µg/mL | potency / potentiation of fluconazole (in words): maintain activity in the morpholine series | MIC (ug/mL) (+) Fluc: 1.90 µg/mL

O=C(c1ccsc1)N1CCC(Cc2ccc(COc3cnc4scnc4c3)cc2)CC1 [MBX-8219]
MIC: 2.81 µg/mL | MIC (ug/mL) (+) Fluc: 2.81 µg/mL

CC(c1cccs1)N1CCC2(CC1)CC(CCOc1ccncc1)CCO2 (stereo not shown) [MBX-7954]
MIC: > 77 µg/mL | MIC (ug/mL) (+) Fluc: >77 µg/mL

O=C(c1ccccn1)N1CCC(Cc2ccc(COc3ccncc3)cc2)CC1 [MBX-7729]
MIC: 15 µg/mL | potency / potentiation of fluconazole (in words): did not result in appreciable increase in potency | MIC (ug/mL) (+) Fluc: 15.00 µg/mL

O=C(c1ccsc1)N1CCC(Cc2ccc(COc3ccnc(Cl)c3)cc2)CC1 [MBX-8253]
MIC: > 21 µg/mL | MIC (ug/mL) (+) Fluc: >21 µg/mL

O=S(=O)(c1cccs1)N1CCC2(CCc3cc(Oc4ccncc4)ccc3O2)CC1 [MBX-8435]
MIC: > 22 µg/mL | MIC (ug/mL) (+) Fluc: >22 µg/mL

O=C(c1ccsc1)N1CCC(Cc2ccc(COc3ccc4scnc4c3)cc2)CC1 [MBX-8086]
MIC: > 19 µg/mL | MIC (ug/mL) (+) Fluc: >19 µg/mL

O=S(=O)(c1ccc(C(F)(F)F)nc1)N1CCC(Cc2ccc(COc3ccncc3)cc2)C1 (stereo not shown) [MBX-8393]
MIC: > 47 µg/mL | MIC (ug/mL) (+) Fluc: >47 µg/mL

O=S(=O)(c1cccc(F)c1)N1CCC(Cc2ccc(CN3CC4(COC4)C3)cc2)CC1 [MBX-8244]
MIC: > 22 µg/mL | MIC (ug/mL) (+) Fluc: >22 µg/mL

CC(c1ccc(CC2CCN(S(=O)(=O)c3cccc(F)c3)CC2)cc1)N1CCOCC1 (stereo not shown) [MBX-8358]
MIC: 2.79 µg/mL | MIC (ug/mL) (+) Fluc: 0.44 µg/mL

O=S(=O)(c1cccs1)N1CCC2(CC1)CC(CCN1CCOCC1)CCO2 (stereo not shown) [MBX-8245]
MIC: > 20 µg/mL | MIC (ug/mL) (+) Fluc: >20 µg/mL

O=C(c1ccsc1)N1CCC(Cc2ccc(CN3CCOCC3)cc2)C1 (stereo not shown) [MBX-8429]
MIC: 18.5 µg/mL | MIC (ug/mL) (+) Fluc: 18.53 µg/mL

O=C(c1ccsc1)N1CCC(Cc2ccc(CNc3ccncc3)cc2)CC1 [MBX-8085]
MIC: > 19 µg/mL | MIC (ug/mL) (+) Fluc: >19 µg/mL

O=S(=O)(c1cccnc1)N1CCC2(CC1)CC(CCOc1ccncc1)CCO2 (stereo not shown) [MBX-7874]
MIC: > 16 µg/mL | MIC (ug/mL) (+) Fluc: >16 µg/mL

O=S(=O)(NC1CC2(CC(Cc3ccc(CN4CCOCC4)cc3)C2)C1)c1ccc(F)cc1 (stereo not shown) [MBX-8311]
MIC: 19 µg/mL | MIC (ug/mL) (+) Fluc: 22.00 µg/mL

O=C(c1ccsc1)N1CCC(Cc2ccc(COc3ccnc(O)c3)cc2)CC1 [MBX-8185]
MIC: > 20 µg/mL | potency / potentiation of fluconazole (in words): complete loss of activity | MIC (ug/mL) (+) Fluc: >20 µg/mL

CN1CCN(Cc2ccc(CC3CCN(S(=O)(=O)c4ccc(F)cc4)CC3)cc2)CC1 [MBX-8436]
MIC: 4.46 µg/mL | MIC (ug/mL) (+) Fluc: 0.45 µg/mL

O=S(=O)(c1ccc(F)cc1)N1CCC(Cc2ccc(CN3CCOCC3)cc2F)CC1 [MBX-8324]
MIC: 1.2 µg/mL | MIC (ug/mL) (+) Fluc: 0.17 µg/mL

CC(C)(C)c1ccc(C(=O)N2CCC(Cc3ccc(COc4ccncc4)cc3)CC2)cc1 [MBX-8094]
MIC: > 22 µg/mL | MIC (ug/mL) (+) Fluc: >22 µg/mL

CC1CC(Cc2ccc(CN3CCOCC3)cc2)CCN1S(=O)(=O)c1cccc(F)c1 (stereo not shown) [MBX-8281]
MIC: 7.03 µg/mL | MIC (ug/mL) (+) Fluc: 1.40 µg/mL

O=S(=O)(c1ccc(Cl)cc1)N1CCC(Cc2ccc(CN3CCOCC3)cc2)CC1 [MBX-8146]
MIC: 0.28 µg/mL | potency / potentiation of fluconazole (in words): maintain activity in the morpholine series | MIC (ug/mL) (+) Fluc: 0.14 µg/mL

O=C(c1cccc(F)c1)N1CCC(Cc2ccc(COc3ccncc3)cc2)CC1 [MBX-7770]
MIC: 8.09 µg/mL | MIC (ug/mL) (+) Fluc: 8.09 µg/mL

O=S(=O)(c1ccccc1F)N1CCC2(CC1)CC(CCOc1ccncc1)CCO2 (stereo not shown) [MBX-7869]
MIC: > 17 µg/mL | MIC (ug/mL) (+) Fluc: 3.07 µg/mL

O=C(c1ccccc1F)N1CCC(Cc2ccc(COc3ccncc3)cc2)CC1 [MBX-7769]
MIC: 11.4 µg/mL | MIC (ug/mL) (+) Fluc: 8.09 µg/mL

O=C(c1ccc(C(F)(F)F)nc1)N1CCC(Cc2ccc(COc3ccncc3)cc2)CC1 [MBX-8089]
MIC: > 22 µg/mL | potency / potentiation of fluconazole (in words): did not result in appreciable increase in potency | MIC (ug/mL) (+) Fluc: >20 µg/mL

O=C(c1ccsc1)N1CCC(Cc2ccc(COc3ccncc3)cn2)CC1 [MBX-8619]
MIC: 4.92 µg/mL | MIC (ug/mL) (+) Fluc: 1.23 µg/mL

O=C(O)c1ccc(C(=O)N2CCC(Cc3ccc(COc4ccncc4)cc3)CC2)cc1 [MBX-8138]
MIC: > 21 µg/mL | MIC (ug/mL) (+) Fluc: >21 µg/mL

CCc1ccc(C(=O)N2CCC(Cc3ccc(COc4ccncc4)cc3)CC2)cc1 [MBX-8087]
MIC: 13 µg/mL | MIC (ug/mL) (+) Fluc: >18 µg/mL

O=C(c1ccsc1)N1CCN(Cc2ccc(-c3ccncc3)cc2)CC1 [MBX-8702]
MIC: 1.14 µg/mL | MIC (ug/mL) (+) Fluc: 0.32 µg/mL

O=S(=O)(c1cccs1)N1CCC2(CC1)CC(CCO)CCO2 (stereo not shown) [MBX-8248]
MIC: > 17 µg/mL | MIC (ug/mL) (+) Fluc: >17 µg/mL

O=C(c1ccsc1)N1CCC(Cc2ccc(CO)cc2)CC1 [MBX-8192]
MIC: > 15.8 µg/mL | MIC (ug/mL) (+) Fluc: >15.8 µg/mL
